Measured values published in paper PMC11131023, “Oral delivery of nanomedicine for genetic kidney disease” (PNAS Nexus, 2024).

Columns and labels:
[1] = cited from earlier work
Text: The primary obstacle in the current management of kidney disease lies in the inadequate drug concentration within the kidney. This limitation is particularly evident in the case of ADPKD, where the only FDA-approved treatment, tolvaptan, achieves ∼5.7% accumulation in the kidney after oral administration ([62]). Similarly, in our study, ∼4.5% of free metformin accumulated in the kidney. Given the pronounced deficiency in kidney bioavailability observed with free drugs, our innovative oral kidney-targeting nanoformulation emerges as a promising solution to the current clinical challenges by pro ...

Caco-2 cells = experiment: TER measurement of Caco-2 monolayers after CP treatment; assay type: cell-based, human; conditions: Caco-2 monolayer, up to 3 days after administration
Protocol: In addition to protection against an acidic environment mimicking the stomach, chitosan has been reported to open tight junctions within the intestinal epithelium and increase bioavailability in vivo ([51]). […] TER was measured three days before treatment and again after administration of nanoparticles or free drug for up to 3 days.
TER measurements were performed using an EVOM2 Epithelial Voltohmmeter (World Precision Instruments, USA).

[2] = Kidney health in ADPKD mice (i-Stat Chem-8+ blood analysis); assay type: in vivo, mouse
Protocol: On the day of harvest, 90 µL of blood taken from the submandibular vein was analyzed using Chem-8+ cartridges for the i-Stat Handheld Blood Analyzer (Abbott, Chicago, IL, USA). Kidney health markers including measurements of plasma sodium (Na), potassium (K), chloride (Cl), ionized calcium (iCa), total carbon dioxide (tCO2), glucose (Glu), BUN/urea, creatinine (Crea), hematocrit (Hct), and hemoglobin (Hb) were evaluated.

AMPK = experiment: Intestine-kidney in vitro Transwell model, phospho-AMPK ELISA; assay type: cell-based, mouse; conditions: mpkCCDc14 cells below Caco-2 cells on Transwell, after 12 hours, N ≥ 3
Protocol: To collect cysts grown in Matrigel, cysts were kept on ice for 1 h to liquidize the Matrigel and centrifuged at 400×g for 5 min to collect the cyst in the pellet. All standards and samples were measured on a Varioskan LUX microplate reader at a wavelength of 450 nm. The phospho-AMPK to total AMPK ratio was normalized to the PBS group and presented in percentage.

[3] = Biodistribution after oral gavage (ex vivo organ Cy7 fluorescence); conditions: 200 μL of 500 µM Cy7-labeled, 24 h, ex vivo imaging, N = 4
Protocol: All animal procedures followed NIH guidelines for the care and use of laboratory animals and were approved by the University of Southern California's Institutional Animal Care and Use Committee. […] Mice were euthanized 24 h postinjection and organs (e.g. brain, heart, lungs, liver, kidneys, spleen, intestines, and bladder) were excised, imaged ex vivo on an AMI HTX in vivo imaging system, and the fluorescence signal was quantified via Aura software (Spectral Instruments Imaging, Tucson, AZ, USA, n ≥ 4). The mean radiance (photons/s/cm^2/sr) for each organ was quantified as a region of interest, and % of total organ fluorescence was obtained by dividing the fluorescence level of each organ by the sum of all the organ regions. Background was subtracted from the PBS-treated group.

[4] = design: method as in PMID 24211079; conditions: cited from earlier work
[5] = oral every 3 days P30-P120, day of harvest

For Cc1ccccc1C(=O)Nc1ccc(C(=O)N2CCCC(O)c3cc(Cl)ccc32)c(C)c1 (stereo not drawn) [tolvaptan], the “accumulation in the kidney after oral administration” value [1] is listed as ~5.7%.

With CN(C)C(=N)N=C(N)N [free metformin, metformin] the “change in TER” value (Caco-2 cells) was “no changes in TER”, the Na ([2]; oral every 3 days P30-P120, blood from submandibular vein, day of harvest) was 144.6 ± 1.6 mmol/L and the BUN/Urea [2, 5] was 22.8 ± 7.8 md/dL. The Cl [2, 5] was 113.0 ± 3.2 mmol/L, the Crea [2, 5] was <0.2 md/dL and the Glu [2, 5] was 220 ± 24.4 mg/dL. It also gave a Hb [2, 5] of 12.8 ± 0.9 g/dL, a Hct [2, 5] of 37.4 ± 3.0 PCV and a K [2, 5] of 5.9 ± 1.4 mmol/L. The iCa [2, 5] was 1.1 ± 0.2 mmol/L, the tCO2 [2, 5] was 23.1 ± 0.8 mmol/L and the “phosphorylated AMPK to total AMPK” value (AMPK) was 1.3 ± 0.4. The “kidney accumulation (% of total organ fluorescence)” value [3] was ~4.5%.

For “Cy7-DSPE-PEG2000-(KKEEE)3K [free amphiphilic monomers, unassembled kidney-targeting amphiphiles]”, the critical micelle concentration [4] is listed as ~1 µM.
